Test results reported in US9522935B2, “Commands and method of treating cancer via RHO pathway” (priority 2013, dated 2016).

Assays:
[1] = system: PancI (pancreatic cancer cell line); assay: MTT assay, LD030 on PancI; assay type: cell-based; conditions: Homo sapiens, 48 hours, read-out: inhibition rate on cell growth
Protocol: (§1) MTT assay, a well known method known in the art, was used to analyze anticancer effects of compound LD030 on human cancer cell lines, such as, HepG2 (liver cancer cell line), PancI (pancreatic cancer cell line), NCI-H460 (lung cancer cell line), MCF-7 (breast adenocarcinoma cell line) and SF-268 (brain tumor cell lines). An LD030 solution was diluted gradually to obtain a serial of LD030 solutions with decreasing concentrations, which was used to treat various cancer cell lines mentioned above incubated in separate container. […] For incubating with HepG2 cell line, LD030's concentrations were 0.001 μM, 0.01 μM, 0.1 μM, 1 μM, 10 μM, 100 μM. For PancI cell line, the concentrations were 0.1 μM, 1 μM, 10 μM, 100 μM. For NCI-H460 cell line, the concentrations were 0.001 μM, 0.01 μM, 0.1 μM, 1 μM, 10 μM, 100 μM. For MCF-7 cell line, the concentrations were 0.001 μM, 0.01 μM, 0.1 μM, 1 μM, 10 μM, 100 μM. For SF-268 cell line, the concentrations were 0.001 μM, 0.01 μM, 0.1 μM, 1 μM, 10 μM, 100 μM.

[2] = system: NCI-H460 (lung cancer cell line); assay: MTT assay, LD030 on NCI-H460; assay type: cell-based; conditions: Homo sapiens; NCI-H460, 100 μM, 48 hours; read-out: inhibition rate on cell growth
Protocol: as §1

[3] = system: MCF-7 (breast adenocarcinoma cell line); assay: MTT assay, LD030 on MCF-7; assay type: cell-based; conditions: Homo sapiens, MCF7; MCF-7, 100 μM, 48 hours; read-out: inhibition rate on cell growth
Protocol: as §1

[4] = system: SF-268 (brain tumor cell lines); assay: MTT assay, LD030 on SF-268; assay type: cell-based; conditions: Homo sapiens; SF-268, 100 μM, 48 hours; read-out: inhibition rate on cell growth
Protocol: as §1

[5] = system: pancreatic cancer cell lines; assay: Nude mouse model of pancreatic cancer (xenograft), tumor size; assay type: in vivo, NOD/SCID mice; conditions: 43 days; for tumor volume reduced: FIG. 15
Protocol: Two strains of pancreatic cancer cell lines were selected to be grafted to nonobese diabetic/severe combined immunodeficient (NOD/SCID) mice, and the tumor was inoculated in mouse ventral sides. About two weeks, they were used as a nude mouse model of pancreatic cancer. […] Each of the above groups. The treatment continued for 43 days (gemcitabine alone group 2 times a week; other groups 3 times a week), and then tumor size was recorded as shown in FIG. 16. […] Further experiments were conducted to study the effects of the combinational use of LD030 with gemcitabine as compared being used alone on tumor inhibition. Four treatment groups were set up: (a) blank control, (2) gemcitabine (25 mg/kg/time, 2 times a week), (3) LD030 (0.5 mg/kg/time, 3 times a week), (4) LD030 (0.5 mg/kg/time, 3 times a week) together with gemcitabine (25 mg/kg/time, 2 times a week).

[6] = system: p-STAT3, p-JAK2, Bcl-XL, apoptosis protease 3, 9; assay: Protein electrophoresis of extracts from treated allograft mouse; assay type: in vivo; conditions: 0.01 mg/kg intraperitoneal injection, three times a week; versus control mouse
Protocol: LD030's effect on the growth of allograft pancreatic cancer cell lines was further studied as follows: Each mouse model was given 0.01 mg/kg LD030 via intraperitoneal injection, three times a week. […] Extracted from the treated mouse and the control mouse, the phosphorylation-signal transduction and activator of transcription (p-STAT3), phospho-JAK2 (p-JAK2), Bcl-XL, apoptosis protease 3, 9 and GADPH (glyceraldehyde-3-phosphate dehydrogenase, or […]) were subject to protein electrophoresis. […] GADPH was used as an internal reference, the expression of which was basically unchanged.

CC(=O)OC(C)(C)C(=O)CCC(C)C1CC[C@@]2(C)C34CC[C@H]5C(C)(C)[C@@H](O)CC[C@]5(C)C3(CC[C@]12C)O4 (some centres unmarked) [LD030]
inhibition at 100 µM [1]: > 80% | inhibition at 100 µM [2]: > 80% | inhibition at 100 µM [3]: > 80% | inhibition at 100 µM [4]: > 80% | tumor volume reduced ([5]; 0.5 mg/kg/time LD030, 3 time a week): 21% | tumor volume reduced ([5]; 1 mg/kg/time LD030, 3 time a week): 62% | tumor size reduced ([5]; LD030 0.5 mg/kg/time, 3 times a week, FIG. 17): 21% | expression of Bcl-XL [6]: significantly reduced | expression of apoptosis protease 3, 9 [6]: significantly increased | expression of p-JAK2 [6]: significantly reduced | expression of p-STAT3 [6]: significantly reduced
